Measurements reported in US8076487B2, “Pyridone derivative and herbicide” (Kumiai Chemical Industry Co., Ltd., priority 2006, dated 2011).

How the values were obtained:
Assay type in all cases: in vivo
[1] = test system: Japanese bulrush (Scirpus juncoides Roxb.); assay: Test Example 1: herbicidal effect by soil application to paddy field; conditions: paddy field soil application; active ingredient 1,000 g per 1 hectare; wettable powder added dropwise to water surface the day after sowing; examined on the 21st day after application
Outline: (§1)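 Plants were sown in flooded (3 cm) paddy soil and evaluated for herbicidal effect 21 days after soil application in a greenhouse.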

[2] = test system: early watergrass (Echinochloa oryzicola Vasing); assay: as above; conditions: paddy field soil application; active ingredient 1,000 g per 1 hectare; wettable powder added dropwise to water surface the day after sowing; examined on the 21st day after application
Outline: as §1

[3] = test system: heartshape false pickerelweed (Monochoria vaginalis (Burm.f.) C.Presl); assay: as above; conditions: paddy field soil application; active ingredient 1,000 g per 1 hectare; wettable powder added dropwise to water surface the day after sowing; examined on the 21st day after application
Outline: as §1

[4] = test system: barnyardgrass (Echinochloa crus-galli (L.) P. Beauv. var. crus-galli); assay: Test Example 2: herbicidal effect by soil application to upland field; conditions: soil surface spray, upland field soil, 1,000 g active ingredient per hectare, 21st day after application
Outline: (§2)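 Seeds were sown in field soil, covered, and the soil surface sprayed with a water-diluted wettable powder at 1,000 g active ingredient per hectare in 1,000 L/ha. Plants grew in a greenhouse, and herbicidal effect was rated against a standard scale 21 days after application.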

[5] = test system: green foxtail (Setaria viridis (L.) P. Beauv.); assay: as above; conditions: soil surface spray, upland field soil, 1,000 g active ingredient per hectare, 21st day after application
Outline: as §2

[6] = test system: slender amaranth (Amaranthus viridis L.); assay: as above; conditions: soil surface spray, upland field soil, 1,000 g active ingredient per hectare, 21st day after application
Outline: as §2

[7] = test system: velvetleaf (Abutilon theophrasti medicus); assay: as above; conditions: soil surface spray, upland field soil, 1,000 g active ingredient per hectare, 21st day after application
Outline: as §2

[8] = test system: barnyardgrass (Echinochloa crus-galli (L.) P. Beauv. var. crus-galli); assay: Test Example 3: herbicidal effect by application to upland field (foliage treatment); conditions: foliage treatment, 1,000 g active ingredient per 1 hectare, 14th day after application, greenhouse
Outline: (§3)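 Greenhouse-grown plants, two weeks old in field soil, were treated by spraying their foliage with a water dilution of wettable powder. Rate: 1,000 g active ingredient in a 1,000 L/ha equivalent volume. Assessment followed at 14 days.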

[9] = test system: green foxtail (Setaria viridis (L.) P. Beauv.); assay: as above; conditions: foliage treatment, 1,000 g active ingredient per 1 hectare, 14th day after application, greenhouse
Outline: as §3

[10] = test system: slender amaranth (Amaranthus viridis L.); assay: as above; conditions: foliage treatment, 1,000 g active ingredient per 1 hectare, 14th day after application, greenhouse
Outline: as §3

[11] = test system: velvetleaf (Abutilon theophrasti medicus); assay: as above; conditions: foliage treatment, 1,000 g active ingredient per 1 hectare, 14th day after application, greenhouse
Outline: as §3

Structure (SMILES)	herbicidal effect, Scirpus juncoides Roxb. [1]	herbicidal effect, Echinochloa oryzicola Vasing [2]	herbicidal effect, Monochoria vaginalis (Burm. f.) C. Presl [3]	herbicidal effect (index), Barnyardgrass [4]	herbicidal effect (index), Green Foxtail [5]	herbicidal effect (index), Slender Amaranth [6]	herbicidal effect (index), Velvetleaf [7]	herbicidal effect, Barnyardgrass [8]	herbicidal effect, Green Foxtail [9]	herbicidal effect, Slender Amaranth [10]	herbicidal effect, Velvetleaf [11]
COC(C)Cn1c(C(F)(F)F)ccc(C(=O)c2cnn(C)c2O)c1=O (stereo not shown) [IV-38]	5 (90% or more of herbicidal effect and crop phytotoxicity)	5 (90% or more of herbicidal effect and crop phytotoxicity)	5 (90% or more of herbicidal effect and crop phytotoxicity)	5 (90% or more of herbicidal effect and crop phytotoxicity)	4 (70 to less than 90% of herbicidal effect and crop phytotoxicity)	5 (90% or more of herbicidal effect and crop phytotoxicity)	5 (90% or more of herbicidal effect and crop phytotoxicity)	5 (90% or more of herbicidal effect and crop phytotoxicity)	5 (90% or more of herbicidal effect and crop phytotoxicity)	5 (90% or more of herbicidal effect and crop phytotoxicity)	5 (90% or more of herbicidal effect and crop phytotoxicity)
CCCS(=O)(=O)Oc1c(C(=O)c2ccc(C(F)(F)F)n(CC(C)OC)c2=O)cnn1C (stereo not shown) [IV-39]	5 (90% or more of herbicidal effect and crop phytotoxicity)	5 (90% or more of herbicidal effect and crop phytotoxicity)	5 (90% or more of herbicidal effect and crop phytotoxicity)	5 (90% or more of herbicidal effect and crop phytotoxicity)	3 (50 to less than 70% of herbicidal effect and crop phytotoxicity)	4 (70 to less than 90% of herbicidal effect and crop phytotoxicity)	4 (70 to less than 90% of herbicidal effect and crop phytotoxicity)	5 (90% or more of herbicidal effect and crop phytotoxicity)	3 (50 to less than 70% of herbicidal effect and crop phytotoxicity)	5 (90% or more of herbicidal effect and crop phytotoxicity)	5 (90% or more of herbicidal effect and crop phytotoxicity)
COCCCn1c(C(F)(F)F)ccc(C(=O)c2cnn(C)c2O)c1=O [IV-47]	5 (90% or more of herbicidal effect and crop phytotoxicity)	5 (90% or more of herbicidal effect and crop phytotoxicity)	5 (90% or more of herbicidal effect and crop phytotoxicity)	4 (70 to less than 90% of herbicidal effect and crop phytotoxicity)	5 (90% or more of herbicidal effect and crop phytotoxicity)	5 (90% or more of herbicidal effect and crop phytotoxicity)	5 (90% or more of herbicidal effect and crop phytotoxicity)	4 (70 to less than 90% of herbicidal effect and crop phytotoxicity)	5 (90% or more of herbicidal effect and crop phytotoxicity)	5 (90% or more of herbicidal effect and crop phytotoxicity)	5 (90% or more of herbicidal effect and crop phytotoxicity)
COCCCn1c(C(F)(F)F)ccc(C(=O)c2cnn(C)c2OC(C)=O)c1=O [IV-48]	5 (90% or more of herbicidal effect and crop phytotoxicity)	5 (90% or more of herbicidal effect and crop phytotoxicity)	5 (90% or more of herbicidal effect and crop phytotoxicity)	4 (70 to less than 90% of herbicidal effect and crop phytotoxicity)	5 (90% or more of herbicidal effect and crop phytotoxicity)	5 (90% or more of herbicidal effect and crop phytotoxicity)	5 (90% or more of herbicidal effect and crop phytotoxicity)	5 (90% or more of herbicidal effect and crop phytotoxicity)	4 (70 to less than 90% of herbicidal effect and crop phytotoxicity)	5 (90% or more of herbicidal effect and crop phytotoxicity)	5 (90% or more of herbicidal effect and crop phytotoxicity)
Cn1ncc(C(=O)c2ccc(C(F)(F)F)n(CCS(C)(=O)=O)c2=O)c1O [IV-54]	4 (70 to less than 90% of herbicidal effect and crop phytotoxicity)	5 (90% or more of herbicidal effect and crop phytotoxicity)	4 (70 to less than 90% of herbicidal effect and crop phytotoxicity)	5 (90% or more of herbicidal effect and crop phytotoxicity)	5 (90% or more of herbicidal effect and crop phytotoxicity)	5 (90% or more of herbicidal effect and crop phytotoxicity)	5 (90% or more of herbicidal effect and crop phytotoxicity)	5 (90% or more of herbicidal effect and crop phytotoxicity)	5 (90% or more of herbicidal effect and crop phytotoxicity)	5 (90% or more of herbicidal effect and crop phytotoxicity)	5 (90% or more of herbicidal effect and crop phytotoxicity)
Cn1ncc(C(=O)c2ccc(C(F)(F)F)n(-c3ccccc3)c2=O)c1O [IV-62]	5 (90% or more of herbicidal effect and crop phytotoxicity)	5 (90% or more of herbicidal effect and crop phytotoxicity)	5 (90% or more of herbicidal effect and crop phytotoxicity)	5 (90% or more of herbicidal effect and crop phytotoxicity)	5 (90% or more of herbicidal effect and crop phytotoxicity)	5 (90% or more of herbicidal effect and crop phytotoxicity)	5 (90% or more of herbicidal effect and crop phytotoxicity)	5 (90% or more of herbicidal effect and crop phytotoxicity)	5 (90% or more of herbicidal effect and crop phytotoxicity)	5 (90% or more of herbicidal effect and crop phytotoxicity)	5 (90% or more of herbicidal effect and crop phytotoxicity)
Cn1ncc(C(=O)c2ccc(C(F)(F)F)n(-c3cc(F)cc(F)c3)c2=O)c1O [IV-80]	5 (90% or more of herbicidal effect and crop phytotoxicity)	5 (90% or more of herbicidal effect and crop phytotoxicity)	5 (90% or more of herbicidal effect and crop phytotoxicity)	5 (90% or more of herbicidal effect and crop phytotoxicity)	5 (90% or more of herbicidal effect and crop phytotoxicity)	5 (90% or more of herbicidal effect and crop phytotoxicity)	5 (90% or more of herbicidal effect and crop phytotoxicity)	5 (90% or more of herbicidal effect and crop phytotoxicity)	5 (90% or more of herbicidal effect and crop phytotoxicity)	5 (90% or more of herbicidal effect and crop phytotoxicity)	5 (90% or more of herbicidal effect and crop phytotoxicity)
Cc1nn(C)c(O)c1C(=O)c1ccc(C(F)(F)F)n(-c2cc(F)cc(F)c2)c1=O [IV-81]	3 (50 to less than 70% of herbicidal effect and crop phytotoxicity)	5 (90% or more of herbicidal effect and crop phytotoxicity)	5 (90% or more of herbicidal effect and crop phytotoxicity)	5 (90% or more of herbicidal effect and crop phytotoxicity)	5 (90% or more of herbicidal effect and crop phytotoxicity)	5 (90% or more of herbicidal effect and crop phytotoxicity)	5 (90% or more of herbicidal effect and crop phytotoxicity)	4 (70 to less than 90% of herbicidal effect and crop phytotoxicity)	4 (70 to less than 90% of herbicidal effect and crop phytotoxicity)	5 (90% or more of herbicidal effect and crop phytotoxicity)	5 (90% or more of herbicidal effect and crop phytotoxicity)
